pIC50: −log10 of the molar value.
Test system: 422866-222-R5-J1-PDC complex spheroids viability
Assay: Anticancer human tumor 422866-222-R5-J1-PDC patient-derived pancreatic adenocarcinoma cell line growth inhibition [RAS]
Conditions: for pIC50: curve of first compound; for viability, T/C: stronger effect = lower value
Procedure, shortened: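 Multi-cell-type spheroids: tumor cells plus HUVEC endothelial cells and mesenchymal stem cells. RAS-pathway inhibitors were combined with targeted agents, each dosed in half-log steps down from clinical Cmax, or from 10 microM when Cmax was unknown.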
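Also: spheroids exposed to compounds for 7 days.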
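For viability, T/C in this document: 100% = DMSO vehicle control viability.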

pIC50 (second compound 0.00316 µM): > 7.50
pIC50 (second compound 0.01 µM): > 7.50
pIC50 (second compound 0.0316 µM): > 7.50
pIC50 (second compound 0.1 µM): > 7.50
pIC50 (second compound 0.316 µM): > 7.50
pIC50 (second compound 1 µM): > 7.50
SMILES: Cc1nc(N2CCC3(CC2)COC(C)C3N)c(CO)nc1Sc1ccnc(N)c1Cl (configuration not stated) + C=CC(=O)N1CCN(c2nc(OCC3CCCN3C)nc3c(F)c(-c4nc(N)cc(C)c4C(F)(F)F)c(Cl)cc23)C(C)C1
viability, T/C (second compound 0.00316 µM, first compound 0.0316 µM): 24.8%
viability, T/C (second compound 0.00316 µM, first compound 0.1 µM): 21.8%
viability, T/C (second compound 0.00316 µM, first compound 0.316 µM): 17.4%
viability, T/C (second compound 0.00316 µM, first compound 1 µM): 15%
viability, T/C (second compound 0.00316 µM, first compound 3.16 µM): 15.1%
viability, T/C (second compound 0.00316 µM, first compound 10 µM): 14.8%
viability, T/C (second compound 0.01 µM, first compound 0.0316 µM): 30.3%
viability, T/C (second compound 0.01 µM, first compound 0.1 µM): 19.8%
viability, T/C (second compound 0.01 µM, first compound 0.316 µM): 25%
viability, T/C (second compound 0.01 µM, first compound 1 µM): 15.4%
viability, T/C (second compound 0.01 µM, first compound 3.16 µM): 14.8%
viability, T/C (second compound 0.01 µM, first compound 10 µM): 14.2%
viability, T/C (second compound 0.0316 µM, first compound 0.0316 µM): 21.1%
viability, T/C (second compound 0.0316 µM, first compound 0.1 µM): 19.3%
viability, T/C (second compound 0.0316 µM, first compound 0.316 µM): 13.8%
viability, T/C (second compound 0.0316 µM, first compound 1 µM): 13.8%
viability, T/C (second compound 0.0316 µM, first compound 3.16 µM): 15.8%
viability, T/C (second compound 0.0316 µM, first compound 10 µM): 17.7%
viability, T/C (second compound 0.1 µM, first compound 0.0316 µM): 20%
viability, T/C (second compound 0.1 µM, first compound 0.1 µM): 15.1%
viability, T/C (second compound 0.1 µM, first compound 0.316 µM): 15.7%
viability, T/C (second compound 0.1 µM, first compound 1 µM): 13.2%
viability, T/C (second compound 0.1 µM, first compound 3.16 µM): 17.5%
viability, T/C (second compound 0.1 µM, first compound 10 µM): 14.4%
viability, T/C (second compound 0.316 µM, first compound 0.0316 µM): 15.9%
viability, T/C (second compound 0.316 µM, first compound 0.1 µM): 16.4%
viability, T/C (second compound 0.316 µM, first compound 0.316 µM): 16%
viability, T/C (second compound 0.316 µM, first compound 1 µM): 13.4%
viability, T/C (second compound 0.316 µM, first compound 3.16 µM): 17.7%
viability, T/C (second compound 0.316 µM, first compound 10 µM): 17.8%
viability, T/C (second compound 1 µM, first compound 0.0316 µM): 21.5%
viability, T/C (second compound 1 µM, first compound 0.1 µM): 15.2%
viability, T/C (second compound 1 µM, first compound 0.316 µM): 19.2%
viability, T/C (second compound 1 µM, first compound 1 µM): 15.1%
viability, T/C (second compound 1 µM, first compound 3.16 µM): 15.9%
viability, T/C (second compound 1 µM, first compound 10 µM): 18.9%

— PubChem BioAssay AID2060901 (Molecular Pharmacology Branch, DTP, NCI, 2025)
